Measured values as given in patent US8119647B2, “Fused pyrimidineone compounds as TRPV3 modulators” (Glenmark Pharmaceuticals S.A., priority 2008, dated 2012).
Where two headings read alike, the source gives them in different places.

Target: T1, Human TRPV3 (Homo sapiens, UniProt Q8NET8)
T1 construct: expressed in transfected cells; host or cells: CHO cells (G-418 selection)
T1 sequence (Q8NET8 1-790): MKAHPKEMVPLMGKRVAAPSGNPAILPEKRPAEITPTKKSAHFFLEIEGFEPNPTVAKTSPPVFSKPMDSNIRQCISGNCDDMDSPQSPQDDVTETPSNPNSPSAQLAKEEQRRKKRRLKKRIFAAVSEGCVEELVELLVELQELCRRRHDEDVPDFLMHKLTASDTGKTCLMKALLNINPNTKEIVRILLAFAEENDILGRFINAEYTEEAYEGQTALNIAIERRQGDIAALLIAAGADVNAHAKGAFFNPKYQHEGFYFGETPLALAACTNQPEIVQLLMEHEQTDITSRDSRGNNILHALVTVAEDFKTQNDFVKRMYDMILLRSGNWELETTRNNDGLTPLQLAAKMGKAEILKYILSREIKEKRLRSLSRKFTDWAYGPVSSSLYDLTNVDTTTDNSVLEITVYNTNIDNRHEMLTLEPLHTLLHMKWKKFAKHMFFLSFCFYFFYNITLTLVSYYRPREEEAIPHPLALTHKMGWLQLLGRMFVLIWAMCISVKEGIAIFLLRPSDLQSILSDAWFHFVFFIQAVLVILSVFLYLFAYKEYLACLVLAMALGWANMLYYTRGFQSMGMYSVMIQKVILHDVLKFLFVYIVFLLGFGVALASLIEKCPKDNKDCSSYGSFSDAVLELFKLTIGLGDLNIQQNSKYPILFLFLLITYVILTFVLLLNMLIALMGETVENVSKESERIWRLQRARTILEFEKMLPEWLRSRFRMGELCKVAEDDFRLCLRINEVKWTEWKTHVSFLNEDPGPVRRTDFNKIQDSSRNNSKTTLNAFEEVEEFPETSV
Assay: Screening for TRPV3 antagonist using the 45Calcium uptake assay (inhibition of 2-APB induced cellular uptake of radioactive calcium)
Assay type: cell-based
Conditions: for inhibition at 1 µM: read-out: Percentage inhibition at 1.0 μM; for inhibition at 10 µM: read-out: Percentage inhibition at 10.0 μM; for IC50: class symbols
How it was run: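 CHO cells stably expressing human TRPV3, preincubated 10 min with test compound, then 2-APB (500 μM final) plus 5 μCi/ml 45Ca2+ for 4 min in DMEM/F-12 with 1.8 mM CaCl2; 0.5% DMSO final. Lysate radioactivity by scintillation counting. IC50 by nonlinear regression of % maximal response; % inhibition at 1.0 and 10.0 μM.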

[1] = 1.0 μM test compound, human TRPV3 expressing CHO cells, 2-APB 500 μM
[2] = 10.0 μM test compound, human TRPV3 expressing CHO cells, 2-APB 500 μM
[3] = human TRPV3 expressing CHO cells, 2-APB 500 μM

Molecule	inhibition at 1 µM [1] [%]	inhibition at 10 µM [2] [%]	IC50 [3] [nM]	Percentage inhibition at 1.0 μM [1] [%]	Percentage inhibition at 10.0 μM [2] [%]	further results
CCOCCOc1cccc(/C=C/c2nc3sccn3c(=O)c2-c2ccc(OC(F)(F)F)cc2)c1OCC1CC1 [Example 62, 7-{(E)-2-[2-(Cyclopropylmethoxy)-3-(2-ethoxyethoxy)phenyl]-1-ethenyl}-6-(4-trifluoro-methoxyphenyl)-5H-[1,3]thiazolo[3,2-a]pyrimidin-5-one]				30.6	55.9	
CCCCOc1c(/C=C/c2nc3sc4ccccc4n3c(=O)c2-c2ccc(C#N)cc2)cccc1OC [Example 87]				34.44	60.79	
COc1cccc(/C=C/c2nc3sccn3c(=O)c2-c2ccc(OC(F)(F)F)cc2)c1OCCC(C)C [Example 50, 7-[(E)-2-{2-Isopentyloxy-3-methoxyphenyl}-1-ethenyl]-6-[4-(trifluoromethoxy)phenyl]-5H-[1,3]thiazolo[3,2-a]pyrimidin-5-one]	81.9	89.8	< 250			
COc1cccc(/C=C/c2nc3sc4ccccc4n3c(=O)c2-c2ccc(C#N)cc2)c1OCCCC#N [Example 83, 4-(2-{(E)-2-[2-(3-Cyanopropoxy)-3-methoxyphenyl}-1-ethenyl}-4-oxo-4H-benzo[4,5]-[1,3]thiazolo-[3,2]pyrimidin-3-yl)benzonitrile]				23.6	57.1	
COc1cccc(/C=C/c2nc3sc(Cl)cn3c(=O)c2-c2ccc(N(C)C)cc2)c1OCC(C)C [Example 81, 2-Chloro-6-[4-(dimethylamino)phenyl]-7-[(E)-2-(2-isobutoxy-3-methoxyphenyl)vinyl]-5H-[1,3]thiazolo[3,2-a]pyrimidin-5-one]	64.3	78.5	250 to 500			
COc1cccc(/C=C/c2nc3sc(C)c(C)n3c(=O)c2-c2ccc(OC(F)(F)F)cc2)c1OCC1CC1 [Example 77, 7-[(E)-2-(2-Cyclopropylmethoxy-3-methoxyphenyl)-1-ethenyl]-2,3-dimethyl-6-[4-(trifluoromethoxy)phenyl]-5H-[1,3]thiazolo[3,2-a]pyrimidin-5-one]	24.7	44				
COc1cccc(/C=C/c2nc3sccn3c(=O)c2-c2ccc(OCCCC#N)cc2)c1OCC1CC1 [Example 46]						inhibition at 1 µM (CHO): 10%; inhibition at 10 µM (CHO): 52.8%
COc1cccc(/C=C/c2nc3sccn3c(=O)c2-c2ccc(OC(F)(F)F)cc2)c1OCC(C)C [Example 51, 7-[(E)-2-(2-Isobutoxy-3-methoxyphenyl)-1-ethenyl]-6-[4-(trifluoromethoxy)phenyl]-5H-[1,3]thiazolo[3,2-a]pyrimidin-5-one]	89.1	95.6	< 250			
COc1cccc(/C=C/c2nc3sccn3c(=O)c2-c2ccc(OC(F)(F)F)cc2)c1OCCC(F)(F)F [Example 70, 7-[(E)-2-{3-Methoxy-2-(2-trifluoromethylethoxy)phenyl}-1-ethenyl]-6-[4-(trifluoromethoxy)phenyl]-5H-[1,3]thiazolo[3,2-a]pyrimidin-5-one]	90.8	97.9	< 250			
COc1cccc(/C=C/c2nc3sccn3c(=O)c2-c2ccc(C#N)cc2)c1OCCCC#N [Example 22, 4-{7-[(E)-2-{2-(3-Cyanopropoxy)-3-(methoxyphenyl)-1-ethenyl]}-5-oxo-5H-[1,3]-thiazolo[3,2-a]pyrimidin-6-yl}benzonitrile]				16.1	24.5	
CCOCCOc1c(/C=C/c2nc3sccn3c(=O)c2-c2ccc(C(F)(F)F)cc2)cccc1OC [Example 32, {7-[(E)-2-(2-Ethoxyethoxy)-3-methoxy)phenyl-1-ethenyl]-6-[4-(trifluoromethyl)phenyl]-5H-[1,3]thiazolo[3,2-a]pyrimidin-5-one]			250 to 500	89.3	97.7	
CCCCOc1c(/C=C/c2nc3sccn3c(=O)c2-c2ccc(C#N)cc2)cccc1OC [Example 9, 4-{7-[(E)-2-(2-Butoxy-3-methoxyphenyl)-1-ethenyl]-5-oxo-5H-[1,3]thiazolo[3,2-a]pyrimidin-6-yl}benzonitrile]	71.6	91.9	500 to 1000			
COc1cccc(/C=C/c2nc3sccn3c(=O)c2-c2ccc(OCC3CC3)cc2)c1OCC1CC1 [Example 47, 7-[(E)-2-(2-Cyclopropylmethoxy-3-methoxyphenyl)-1-ethenyl]-6-(4-cyclopropylmethoxyphenyl]-5H-[1,3]thiazolo[3,2-a]pyrimidin-5-one]	43.7	69.2				
7-[(E)-2-{(3-Cyanopropoxy)-3-methoxy}phenylvinyl]-6-[4-(trifluoromethoxy)phenyl]-5H-[1,3]thiazolo[3,2-a]pyrimidin-5-one [Example 74]				30.20	86.42	
COCCOc1c(/C=C/c2nc3sc4ccccc4n3c(=O)c2-c2ccc(C(F)(F)F)cc2)cccc1OC [Example 92, 2-{(E)-2-[(2-Methoxyethoxy)-3-methoxyphenyl]-1-ethenyl}-3-(4-trifluoromethylphenyl)-4H-benzo[4,5][1,3]thiazolo-[3,2-a]pyrimidin-4-one]				23.11	47.48	

Further lines, with some results ahead:

inhibition at 1 µM [1] [%]	inhibition at 10 µM [2] [%]	IC50 [3] [nM]	Molecule	Percentage inhibition at 1.0 μM [1] [%]	Percentage inhibition at 10.0 μM [2] [%]	further results
24.8	67.7		COCCOc1c(/C=C/c2nc3sc4ccccc4n3c(=O)c2-c2ccc(OC(F)(F)F)cc2)cccc1OC [Example 96, 2-{(E)-2-[3-Methoxy-2-(2-methoxyethoxy)phenyl]-1-ethenyl}-3-(4-trifluoromethoxy-phenyl)-4H-benzo[4,5][1,3]thiazolo-[3,2-a]pyrimidin-4-one]			
4.11	15.2		O=c1c(-c2ccc(C(F)(F)F)cc2)c(/C=C/c2cccnc2)nc2sccn12 [Example 39, 7-[(E)-2-Pyridin-3-ylvinyl]-6-[4-(trifluoromethyl)phenyl]-5H-[1,3]thiazolo[3,2-a]pyrimidin-5-one]			
15.4	22		N#CCCCOc1cccc(/C=C/c2nc3sccn3c(=O)c2-c2ccc(OC(F)(F)F)cc2)c1OCC1CC1 [Example 65, 7-{(E)-2-[2-(Cyclopropylmethoxy)-3-(3-cyanopropoxy)phenyl]-1-ethenyl}-6-(4-trifluoromethoxyphenyl)-5H-[1,3]thiazolo[3,2-a]pyrimidin-5-one]			
43.1	78.4		COc1cccc(/C=C/c2nc3sccn3c(=O)c2-c2ccc(C(F)(F)F)cc2)c1OCC1CCC1 [Example 34, 7-[(E)-2-(2-Cyclobutylmethoxy-3-methoxyphenyl)-1-ethenyl]-6-[4-(trifluoromethyl)phenyl]-5H-[1,3]thiazolo[3,2-a]pyrimidin-5-one]			
58.1	82.1	250 to 500	COc1cccc(/C=C/c2nc3sccn3c(=O)c2-c2ccc(OC(F)(F)F)cc2)c1OC1CCCCC1 [Example 72, 7-[(E)-2-(2-Cyclohexyloxy-3-methoxyphenyl)-1-ethenyl]-6-[4-(trifluoromethoxy)phenyl]-5H-[1,3]thiazolo[3,2-a]pyrimidin-5-one]			
10.4	73.1	1000 to 10000	COc1cccc(/C=C/c2nc3sccn3c(=O)c2-c2ccccc2)c1OCC1CC1 [Example 2, 7-{(E)-2-[2-(Cyclopropylmethoxy)-3-methoxyphenyl]vinyl}-6-phenyl-5H-[1,3]thiazolo[3,2-a]pyrimidin-5-one]			
41	88.1		COCCOc1c(/C=C/c2nc3sccn3c(=O)c2-c2ccc(C#N)cc2)cccc1OC [Example 14, 4-{7-[(E)-2-(3-Methoxy-2-(2-methoxyethoxy)phenyl]-1-ethenyl}-5-oxo-5H-[1,3]-thiazolo[3,2-a]pyrimidin-6-yl}benzonitrile]			
86.5	93.7	< 250	COc1cccc(/C=C/c2nc3sccn3c(=O)c2-c2ccc(C(F)(F)F)cc2)c1OCC(C)(C)C [Example 29, 7-[(E)-2-(3-Methoxy-2-neopentyloxy)phenyl-1-ethenyl]-6-(4-(trifluoromethyl)phenyl)-5H-[1,3]thiazolo[3,2-a]pyrimidin-5-one]			
